Converted amounts (≈) assume the structure as drawn.
Key:
Assay type in all cases: functional
Streptococcus pneumoniae [1] = assay: Minimum inhibitory concentration against Streptococcus pneumoniae 5979 strain
Haemophilus influenzae = assay: Minimum inhibitory concentration against Haemophilus influenzae GYR1435 (erythromycin susceptible strain)
Streptococcus pneumoniae [2] = assay: Minimum inhibitory concentration against Streptococcus pneumoniae 5649 strain
Streptococcus pyogenes [3] = assay: Minimum inhibitory concentration against Streptococcus pyogenes EES61 (erythromycin-susceptible strain)
Staphylococcus aureus [4] = assay: Minimum inhibitory concentration against Staphylococcus aureus 6538P (erythromycin-susceptible strain)
Staphylococcus aureus [5] = assay: Minimum inhibitory concentration against Staphylococcus aureus A5177 (erythromycin-resistant strain
Streptococcus pneumoniae [6] = assay: Minimum inhibitory concentration against Streptococcus pneumoniae ATCC 6303 (erythromycin-susceptible strain)
Streptococcus pyogenes [7] = assay: Minimum inhibitory concentration against Streptococcus pyogenes 930 (erythromycin-resistant strain)

SMILES	MIC (Streptococcus pneumoniae [1]) [µg/mL]	MIC (Haemophilus influenzae) [µg/mL]	MIC (Streptococcus pneumoniae [2]) [µg/mL]	MIC (Streptococcus pyogenes [3]) [µg/mL]	MIC (Staphylococcus aureus [4]) [µg/mL]	MIC (Staphylococcus aureus [5]) [µg/mL]	MIC (Streptococcus pneumoniae [6]) [µg/mL]	MIC (Streptococcus pyogenes [7]) [µg/mL]
CC[C@H]1OC(=O)[C@H](C)C(=O)[C@H](C)[C@@H](O[C@@H]2O[C@H](C)C[C@H](N(C)C)[C@H]2O)[C@@](C)(OCC#Cc2ccccc2)C[C@@H](C)C2=NCCN3C(=O)O[C@@]1(C)[C@H]3[C@H]2C	> 128	8 (≈ 10.8 µM)	0.5 (≈ 0.678 µM)	0.06 (≈ 0.0813 µM)	0.2 (≈ 0.271 µM)	0.2 (≈ 0.271 µM)	0.03 (≈ 0.0407 µM)	64 (≈ 86.7 µM)
CC[C@H]1OC(=O)[C@H](C)C(=O)[C@H](C)[C@@H](O[C@@H]2O[C@H](C)C[C@H](N(C)C)[C@H]2O)[C@@](C)(OCC#Cc2ccc(-c3ccccn3)cc2)C[C@@H](C)C2=NCCN3C(=O)O[C@@]1(C)[C@H]3[C@H]2C	≤ 0.008	1 (≈ 1.23 µM)	≤ 0.008	≤ 0.008	0.25 (≈ 0.307 µM)	0.03 (≈ 0.0368 µM)	≤ 0.008	8 (≈ 9.82 µM)
CC[C@H]1OC(=O)[C@H](C)C(=O)[C@H](C)[C@@H](O[C@@H]2O[C@H](C)C[C@H](N(C)C)[C@H]2O)[C@@](C)(OC)C[C@@H](C)C2=NCCN3C(=O)O[C@@]1(C)[C@H]3[C@H]2C	> 128	4 (≈ 6.27 µM)	1 (≈ 1.57 µM)	0.06 (≈ 0.0941 µM)	0.1 (≈ 0.157 µM)	0.1 (≈ 0.157 µM)	0.06 (≈ 0.0941 µM)	> 128
CC[C@H]1OC(=O)[C@H](C)C(=O)[C@H](C)[C@@H](O[C@@H]2O[C@H](C)C[C@H](N(C)C)[C@H]2O)[C@@](C)(OCC#Cc2ccc(-c3nnn(C)n3)s2)C[C@@H](C)C2=NCCN3C(=O)O[C@@]1(C)[C@H]3[C@H]2C	0.003 (≈ 0.00363 µM)	4 (≈ 4.84 µM)	0.06 (≈ 0.0726 µM)	≤ 0.008	0.5 (≈ 0.605 µM)	0.125 (≈ 0.151 µM)	≤ 0.008	2 (≈ 2.42 µM)
CC[C@H]1OC(=O)[C@H](C)C(=O)[C@H](C)[C@@H](O[C@@H]2O[C@H](C)C[C@H](N(C)C)[C@H]2O)[C@@](C)(OCC#CCCc2ccc(-c3ccccn3)cc2)C[C@@H](C)C2=NCCN3C(=O)O[C@@]1(C)[C@H]3[C@H]2C	0.03 (≈ 0.0356 µM)	2 (≈ 2.37 µM)	0.06 (≈ 0.0712 µM)	≤ 0.008	0.25 (≈ 0.297 µM)	0.25 (≈ 0.297 µM)	≤ 0.008	0.5 (≈ 0.593 µM)
CC[C@H]1OC(=O)[C@H](C)C(=O)[C@H](C)[C@@H](O[C@@H]2O[C@H](C)C[C@H](N(C)C)[C@H]2O)[C@@](C)(OCC#Cc2cnc3ccccc3c2)C[C@@H](C)C2=NCCN3C(=O)O[C@@]1(C)[C@H]3[C@H]2C	2 (≈ 2.53 µM)	2 (≈ 2.53 µM)	0.25 (≈ 0.317 µM)	0.015 (≈ 0.019 µM)	0.1 (≈ 0.127 µM)	0.1 (≈ 0.127 µM)	≤ 0.004	1 (≈ 1.27 µM)
CC[C@H]1OC(=O)[C@H](C)C(=O)[C@H](C)[C@@H](O[C@@H]2O[C@H](C)C[C@H](N(C)C)[C@H]2O)[C@](C)(OCC=Cc2cnc3ccccc3c2)C[C@@H](C)C(=O)[C@H](C)[C@H]2NC(=O)O[C@@]21C [CETHROMYCIN]	16 (≈ 20.9 µM)	2 (≈ 2.61 µM)	0.25 (≈ 0.326 µM)	< 0.005	0.05 (≈ 0.0653 µM)	0.05 (≈ 0.0653 µM)	0.03 (≈ 0.0392 µM)	1 (≈ 1.31 µM)
CC[C@H]1OC(=O)[C@H](C)[C@@H](O[C@H]2C[C@@](C)(OC)[C@@H](O)[C@H](C)O2)[C@H](C)[C@@H](O[C@@H]2O[C@H](C)C[C@H](N(C)C)[C@H]2O)[C@](C)(O)C[C@@H](C)C(=O)[C@H](C)[C@@H](O)[C@]1(C)O [ERYTHROMYCIN]	> 128	8 (≈ 10.9 µM)	16 (≈ 21.8 µM)	0.03 (≈ 0.0409 µM)	0.39 (≈ 0.531 µM)	6.2 (≈ 8.45 µM)	0.06 (≈ 0.0818 µM)	> 128
